Here are results for one molecule from patent publication US20240342203A1, “COMPOSITIONS FOR ORAL CANCER OR AN OROPHARYNGEAL CANCER” (GR BIOSYSTEMS, INC., priority 2020, published 2024).

The test system of one experiment is MMP-14 gene. The experiment in a line: Real time quantitative PCR of MMP-14 gene expression in Cal-27 cells. It is filed as cell-based, Human. Conditions: PGG 10-20 μM. As to the method:
(§1) Squamous cell carcinoma cells (Cal 27) were purchased from ATCC (CRL-2095) and grown in DMEM with Glutamax, 10% FBS and Penicillin/Streptomycin (1055-024, 15140-122, 10438-018 Gibco-ThermoFischer Scientific) and kept at 37° C. in a humidified air chamber with 5% CO2. Cells were seeded at 3×10^5 cells/flask for the experiments and then grown to confluency. Cells between 3 and 10 passages were used for all experiments. 1,2,3,4,6-Penta-O-galloyl-β-D-glucose (G7548, Sigma-Aldrich) was dissolved in dimethylsulfoxide (DMSO) to obtain a 100 mM stock solution. Subsequent dilutions were done using water, and no flask contained more than 0.5 μL of DMSO (0.01%). […] After washing the tissue culture with 1× phosphate buffered saline (PBS), the cells were lysed, and the RNA purified using a Qiagen RNeasy mini kit using the manufacturer's recommended protocol. All samples were treated with Qiagen DNase. One microgram of RNA was used for reverse transcription and subsequent SYBR® Green real time PCR for the genes of interest as previously described. […] Real time quantitative PCR was performed using an Applied Biosciences StepOne plus instrument and analyzed with StepOne software v2.3. The relative amounts of transcripts from each gene were normalized to reference gene GAPDH and calculated as follows: ΔΔCT=the average ΔCT of […]−the average ΔCT of […], and their fold difference=2−ΔΔCT.

A further experiment deals with Stat3. Briefly: Western blot of Stat3 and pStat3 in Cal-27 cells treated with PGG. The class given is cell-based. Conditions: 48 hours. The protocol:
(§2) Squamous cell carcinoma cells (Cal 27) were purchased from ATCC (CRL-2095) and grown in DMEM with Glutamax, 10% FBS and Penicillin/Streptomycin (1055-024, 15140-122, 10438-018 Gibco-ThermoFischer Scientific) and kept at 37° C. in a humidified air chamber with 5% CO2. Cells were seeded at 3×10^5 cells/flask for the experiments and then grown to confluency. Cells between 3 and 10 passages were used for all experiments. 1,2,3,4,6-Penta-O-galloyl-β-D-glucose (G7548, Sigma-Aldrich) was dissolved in dimethylsulfoxide (DMSO) to obtain a 100 mM stock solution. Subsequent dilutions were done using water, and no flask contained more than 0.5 μL of DMSO (0.01%). […] During the protein extraction, media were collected, flash frozen and saved for BCA, Western Blot, and ELISA analysis. […] The proteins were detected and visualized by fluorescence using the LI-COR Odyssey Classic Infrared Imaging system (LI-COR Biosciences). Densitometry analysis of specific bands was performed with the Image Studio software provided by LI-COR Biosciences and the images analyzed using ImageStudio (LI-COR Biosciences). Statistical analysis, including one-way ANOVA with Dunnett's Multiple Comparison Test and Bonferroni, was done using GraphPad Prism 7 (Graph-Pad Software, La Jolla, CA, USA). p values were calculated using the unpaired two-sided Student's t test to compare groups, with statistical significance set at p<0.05.

The subject of the next experiment is MMP-2. The experiment in a line: Western blot of MMP-2 protein expression/release in Cal-27 cells treated with PGG. The class given is cell-based. Conditions: 48 hours, cell media. The protocol: as §2
Background: Immunoblotting shows a protein as a band on a membrane.

The next experiment relates to TNF-α. As to conditions: doses as low as 5 μM; cited from earlier work.
The next experiment relates to MyD88 adaptor protein. Conditions: peritoneal and colonic macrophages; cited from earlier work.
The subject of another experiment is MMP-13 gene. The experiment in a line: Real time quantitative PCR of MMP-13 gene expression in Cal-27 cells. It is filed as cell-based, Human. As to conditions: 10 or 20 μM PGG, p<0.05 and p<0.001. As to the method: as §1
The next experiment has as its system MMP-9 gene. The experiment in a line: Real time quantitative PCR of MMP-9 gene expression in Cal-27 cells. It is filed as cell-based, Human. As to conditions: any PGG dose (1, 2.5, 5, 10 and 20 μM), n=4, p>0.05. The protocol:
as §1

Experiment [1] relates to toll-like receptors 4 (TLR4). As to conditions: peritoneal and colonic macrophages; cited from earlier work.
For another experiment, the system named is Cal 27 cells. Briefly: Transmembrane/Boyden Matrigel invasion assay. The class given is cell-based. Conditions: for percentage of cells invading the membrane compared with untreated control: 24 hour treatment; for Number of cells invading through Matrigel: 24 hour. As to the method: Squamous cell carcinoma cells (Cal 27) were purchased from ATCC (CRL-2095) and grown in DMEM with Glutamax, 10% FBS and Penicillin/Streptomycin (1055-024, 15140-122, 10438-018 Gibco-ThermoFischer Scientific) and kept at 37° C. in a humidified air chamber with 5% CO2. Cells were seeded at 3×10^5 cells/flask for the experiments and then grown to confluency. Cells between 3 and 10 passages were used for all experiments. Transmembrane/Boyden assay plates with Matrigel were purchased from Corning. DMEM with 10% FBS was used as a chemoattractant in the lower chamber while the cells in the upper chamber were cultured in DMEM with 1% FBS. Wells were prepared with different concentrations of PGG (0-10 μM) and left to incubate for 24 hour. After 24 hour media has discarded and the cells invading the Matrigel were counted according to established protocols.

For experiment [2], the system named is peripheral blood mononuclear cells (PBMCs). As to conditions: PBMCs treated with PGG; cited from earlier work.
In the next experiment the test system is MMP-13. Briefly: Western blot of MMP-13 protein expression/release in Cal-27 cells treated with PGG. The class given is cell-based. Conditions: 48 hours. The protocol: as §2
The subject of another experiment is MMP-9. The experiment in a line: Western blot of MMP-9 protein expression/secretion in Cal-27 cells treated with PGG. Conditions: 48 hours. The class given is cell-based. The protocol: as §2
Another experiment has as its system MMP-2 gene. Briefly: Real time quantitative PCR of MMP-2 gene expression in Cal-27 cells. The class given is cell-based, Human. As to the method:
as §1

Entries after “also recorded” stand apart in the source; their conditions may differ. Bounds are passed on as bounds.

Consider `O=C(OC[C@H]1O[C@@H](OC(=O)c2cc(O)c(O)c(O)c2)[C@H](OC(=O)c2cc(O)c(O)c(O)c2)[C@@H](OC(=O)c2cc(O)c(O)c(O)c2)[C@@H]1OC(=O)c1cc(O)c(O)c(O)c1)c1cc(O)c(O)c(O)c1` [PGG, 1,2,3,4,6-penta-O-galloyl-β-D-glucose], for which the “MMP-14 gene expression (mRNA) vs non-treated” value with MMP-14 gene is listed as “reduces”. The “Stat3 phosphorylation (pStat3)” value in the experiment with Stat3 (PGG at different concentrations, normalized to Histone H3, n=4, p<0.0001) is “significantly decreases; also recorded: decrease of Stat3 phosphorylation”. For the same molecule, the “Non-phosphorylated / total Stat3 vs non-treated cells” value in the experiment on Stat3 (PGG at varying concentrations, n=4, p<0.0001) is recorded as “significantly higher; also recorded: increase in total Stat3”. In addition, the “MMP-2 expression vs non-treated group” value in the experiment on MMP-2 (Cal-27 cells, 10 μM PGG, n=4, p<0.01) is “significantly decreased; also recorded: significantly lower”; in the experiment on MMP-2 (Cal-27 cells, 1, 2.5 or 5 μM PGG, n=4, p>0.05), “not significantly different”. In addition, the “suppression of LPS-induced TNF-α production” value in the experiment with TNF-α is on record as at most 90%. In addition, the “interaction with MyD88 adaptor protein; effect on TNF-α, IL-1β and IL-6 production” value in the experiment with MyD88 adaptor protein was “interacted directly with MyD88 adaptor protein thereby decreasing the production of TNF-α, IL-1β and IL-6”. Further, in the experiment with MMP-13 gene, the “MMP-13 gene expression (mRNA)” value is reported as “decreased; also recorded: reduces”. Also, the “MMP-9 gene expression (mRNA) vs non-treated group” value in the experiment with MMP-9 gene is “not significantly different; also recorded: did not significantly decrease”. The “interference with binding of LPS to TLR4” value in experiment [1] is on record as “did not interfere”. Moreover, the “percentage of cells invading the membrane compared with untreated control” value is 44.5% in the experiment on Cal 27 cells (0.5 μM PGG) and 22.3% in the experiment on Cal 27 cells (10 μM PGG (maximum effect)). Moreover, the “Number of cells invading through Matrigel” value is on record as “significantly lower” in the experiment on Cal 27 cells (PGG 0.5 and 1 μM, n=4, p<0.001); “significantly lower” in the experiment on Cal 27 cells (PGG 2.5, 5 and 10 μM, n=4, p<0.0001). Moreover, the “production of TNF-α and IL-1β” value in experiment [2] is “resulted in the production of TNF-α and IL-1β”. Besides, the “MMP-13 expression vs non-treated group” value in the experiment on MMP-13 (Cal-27 cells, 10 μM PGG, normalized to Histone H3, n=4, p<0.01) is “significantly decreased; also recorded: significantly lower”; with MMP-13 (Cal-27 cells, 1, 2.5 or 5 μM PGG, normalized to Histone H3, n=4, p>0.05) it was “not significantly different”. In addition, the “MMP-9 expression vs non-treated group” value is given as “not significantly different” in the experiment on MMP-9 (1 or 2.5 μM PGG, normalized to Histone H3, n=4, p>0.05); “significantly decreased; also recorded: significantly lower” in the experiment with MMP-9 (5 or 10 μM PGG, normalized to Histone H3, n=4, p<0.05 and p<0.01). In addition, the “MMP-2 gene expression (mRNA)” value in the experiment with MMP-2 gene (PGG 5 and 10 μM, GAPDH housekeeping, n=4, p<0.0001) is “significantly decreased”. Further, the “MMP-2 gene expression (mRNA) vs non-treated” value in the experiment on MMP-2 gene (PGG 10-20 μM) was “reduces”.
